Laboratory results published in patent US7193033B2, “Peptide having appetite stimulating activity” (Takeda Pharmaceutical Company Limited, priority 2001, dated 2007).
Ends that are not written are not given here.

Legend:
[1] = target: T1, GPR8 (Homo sapiens, UniProt P48146); assay: Receptor binding test using [125I-Tyr10]-hGPR8L (1–23) and GPR8-expressed CHO cell membrane fraction; conditions: inhibition of [125I-Tyr10]-hGPR8L (1–23) binding; membrane fraction 5 μg/ml
T1 construct: expressed in transfected cells
Experimental: Receptor binding test was carried out using [^125I]-labeled hGPR8L (1–23) prepared as described in EXAMPLE 42 and the cell membrane fraction prepared from GPR8-expressed CHO cells prepared in a similar manner to the procedures described in EXAMPLE 6.
The cell membrane fraction prepared from human GPR8-expressed CHO cells was diluted with an assay buffer (25 mM Tris-HCl, 5 mM EDTA (ethylenediaminetetraacetic acid), 0.05% CHAPS (3-[(3-cholamidopropyl)dimethlammonio]-1-propanesulfonate), 0.1% BSA (bovine serum albumin), 0.25 mM PMSF (phenylmethylsulfonyl fluoride), 1 μg/ml pepstatin, 20 μg/ml leupeptin, pH 7.4) in various concentrations. Subsequently, 200 μl each of the dilution was dispensed in a polypropylene tst tube (Falcon 2053). […] After filtration, the residual radioactivity remained on the filter paper was measured with a γ-counter, and the specific binding (SB) was estimated by subtracting the non-specific binding from the total binding. […]
The receptor binding activity of the human and porcine homologue derivatives of the GPR8 ligand peptide, which synthesis was described in the specification, was determined s described in EXAMPLE 43, using the GPR8-expressed cell membrane fraction and [^125I-Tyr^10]-hGPR8L (1–23). […]

[2] = target: T1, GPR8; assay: GTPγ S binding promoting activity on GPR8-expressed CHO cell membrane fraction; format: biochemical
Experimental: The [^35S]-guanosine 5′-(γ-thio)triphosphate binding promoting activity on a GPR8-expressed CHO cell membrane fraction was assayed by the following procedures. First, preparation of the membrane fraction is described. To 1×10^8 of CHO/GPR8 cells was added 10 ml of a homogenate buffer (10 mM NaHCO3, 5 mM EDTA, 0.5 mM PMSF, 1 μg/ml pepstatin, 4 μg/ml E64, 20 μg/ml leupeptin). The mixture was homogenized by using Polytron (12,000 rpm, 1 min.). The cell homogenate was subjected to centrifugation (1,000 g, 15 mins.) to obtain the supernatant. Next, the supernatant was subjected to ultracentrifugation (Beckman type 30 rotor, 30,000 rpm, 1 hour). The resulting precipitate was used as GPR8-expressed CHO cell membrane fraction.
The GTPγ S binding activity was assayed as follows. The GPR8-expressed CHO cell membrane fraction was diluted with a membrane dilution buffer (50 mM Tris-hydrochloride buffer (pH 7.4), 5 mM MgCl2, 150 mM NaCl, 1 μM GDP) to prepare a cell membrane fraction solution for assay having a protein level of […]. To 200 μl of the cell membrane fraction solution for assay were added 2 μl of 51.5 nM [^35S]-guanosine 5′-(γ-thio)triphosphate (NEN Co.) and a sample fluid. […] After washing twice with 1.5 ml of a wash buffer (50 mM Tris-hydrochloride buffer (pH 7.4), 5 mM MgCl2, 1 mM EDTA, 0.1% BSA), radioactivity of the filter was measured with a liquid scintillation counter. […]

T1 sequence (P48146 whole entry): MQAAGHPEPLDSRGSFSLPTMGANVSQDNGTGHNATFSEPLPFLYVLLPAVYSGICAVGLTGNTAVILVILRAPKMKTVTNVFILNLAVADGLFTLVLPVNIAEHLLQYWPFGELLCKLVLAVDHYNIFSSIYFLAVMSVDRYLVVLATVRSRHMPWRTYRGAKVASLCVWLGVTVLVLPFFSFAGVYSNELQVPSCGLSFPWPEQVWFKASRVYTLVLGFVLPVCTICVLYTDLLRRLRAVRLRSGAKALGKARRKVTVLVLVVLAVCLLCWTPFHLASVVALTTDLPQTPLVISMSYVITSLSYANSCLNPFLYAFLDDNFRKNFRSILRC

| Compound | IC50 [1] [nM] | EC50 [2] [nM] |
| --- | --- | --- |
| CSCC[C@H](NC(=O)[C@H](CC(C)C)NC(=O)[C@H](CC(C)C)NC(=O)CNC(=O)[C@H](C)NC(=O)[C@H](C)NC(=O)[C@H](CCCNC(=N)N)NC(=O)CNC(=O)[C@@H](NC(=O)[C@@H](NC(=O)[C@H](Cc1c[nH]cn1)NC(=O)[C@H](Cc1ccc(O)cc1)NC(=O)[C@H](CCCNC(=N)N)NC(=O)[C@@H]1CCCN1C(=O)[C@H](CO)NC(=O)[C@H](C)NC(=O)[C@@H](NC(=O)[C@H](Cc1c[nH]cn1)NC(=O)[C@H](CCCCN)NC(=O)[C@H](Cc1ccc(O)cc1)NC(=O)[C@H](Cc1c[nH]c2ccccc12)NC(=O)OCC1c2ccccc2-c2ccccc21)C(C)C)[C@@H](C)O)C(C)C)C(=O)NCC(=O)N[C@@H](CC(C)C)C(=O)O [Fmoc-hGPR8L(1–23)] | 0.2 |  |
| H-WYKHVASPRYHTVGRAAG [hGPR8L(1–18), Trp-Tyr-Lys-His-Val-Ala-Ser-Pro-Arg-Tyr-His-Thr-Val-Gly-Arg-Ala-Ala-Gly] |  | > 10000 |
| H-WYKHVASPRYHTVGRAAGLL [hGPR8L(1–20)] | 0.2 |  |
